Results on 1 substance are retold here after US20150050663A1, “Optimal Gonadotropin Dosage” (Oslo Universitetssykehus HF, priority 2012, published 2015).

This experiment relates to peripheral blood monocytes. Kind of experiment: uptake of fluorochrome-conjugated gonadotropins by blood-derived leukocytes (FACS). The class given is cell-based, human. Particulars: FIG. 1B. The protocol: Blood-derived monocytes are enriched by density gradient centrifugation. […] Cells are labelled with fluorochrome-conjugated monocyte marker (e.g. anti-CD14-PerCP antibody, as described above) and analyzed with multi-colour flow cytometry (FACS).
Unspecific binding (background) is estimated as MFI for cells incubated on ice
Cells were analyzed with flow cytometry (FACS) with simultaneous detection of multiple cell lineage markers.

Take cytochalasin: the “effect on gonadotropin binding to monocytes” value was “inhibited”.
